The values that follow come from publication PMC2914114 (Molecular pharmaceutics, 2010).

For orientation: Papp means a coefficient for how fast a substance crosses the barrier. Low values mean poor permeation, high ones ready permeation.

The conditions of series [1]: calculated from Stokes-Einstein equation for equivalent spheres; cited from earlier work.
Series [2] is described as follows: Permeability. The note with it: human, pH 7.4.
Series [3] relates to hCMEC/D3 cells.

Take `OC[C@@H](O)[C@@H](O)[C@H](O)[C@H](O)CO` [[^14C] Mannitol, Mannitol]: the “Molecular Radius” value in series [1] is on record as 4.10 Å. The compound further showed an apparent permeability coefficient (Papp) at 2 h, 0.25 µCi/mL in series [2] of 24.7 ± 0.2 ×10⁻⁶ cm/s.
With `NC(N)=O` [[^14C] Urea, Urea], in series [3] (pH 7.4), the “PM (permeability across the monolayer itself)” value is 5.65 ± 0.08 × 10^−5 cm/sec. In series [1], the “Molecular Radius” value is on record as 2.67 Å.
For the compound `CC(C)[C@H](N)C(=O)OCCOCn1cnc2c(=O)[nH]c(N)nc21` [valacyclovir], the “A-B versus B-A relative permeability (PM)” value in series [3] is “no differences between the A-B and B-A relative permeabilities”.
